Results as given in patent publication US9962364B2, “Wound healing accelerator” (priority 2012, dated 2018).

Test system: mouse-derived 3T3-L1 fibroblasts
Experiment: Cell growth of mouse fibroblasts by MTT assay after treating for one minute (Tests 1, 2, 4)
Assay type: cell-based
Conditions: treatment for 1 minute, then 24 hours of culture, versus physiological saline control
Description: Specifically, after 20 hours of culture, 10 μl of MTT reagent (from Trevigen Inc.) was added to each well and the cells were further cultured for 4 hours under conditions of 37° C. and 5% CO2. After the culture, 100 μl of the Detergent Reagent (Trevigen Inc.) was each added and the cells were left in the dark overnight at room temperature. The absorbance at 595 nm was then determined using a microplate reader (FilterMaxTM F5 Multi-Mode Microplate Reader, Molecular Devices, LLC.). […] The absorbance of the control group in Test 1 was 0.289±0.016. Gallic acid (from Tokyo Chemical Industry Co., Ltd.), caffeic acid (from Tokyo Chemical Industry Co., Ltd.), (+)-catechin (from Tokyo Chemical Industry Co., Ltd.) and chlorogenic acid (from Sigma-Aldrich Co. LLC.) were assayed. […] The absorbance of the control group in Test 2 was 0.196±0.011. Green tea extract (from MARUZEN PHARMACEUTICALS CO., LTD.) was assayed. […] The absorbance of the control group in Test 4 was 0.276±0.010.

Structure (SMILES): O=C(O)c1cc(O)c(O)c(O)c1 [gallic acid]
- growth of fibroblasts (extent of cell growth by MTT assay): no growth of fibroblasts was observed
